# How the values were obtained:
# [1] = reboxetine elimination half-life and time to steady state; type: in vivo; details: about four elimination half lives after initiation of continuous intermittent dosing
# Description: Generally, continuous dosing for a period equal to about four elimination half lives is required to obtain steady-state conditions. Accordingly, steady-state conditions are approached at approximately 52 hours following initiation of a continuous intermittent dosing regimen. Mean steady-state plasma reboxetine concentrations following dosing every 24 hours with 4 mg doses of reboxetine methanesulfonate in two different sustained release dosage forms, having T90 values of about 9 hours and about 18 hours, respectively, and following dosing every 12 hours with 2 mg doses of reboxetine methanesulfonate (total daily dose=4 mg) in an immediate release dosage form for a period of four days (96 hours) were simulated.
# [2] = in vivo; cited from earlier work
smiles,measurement,setting,value
"CCOc1ccccc1OC(c1ccccc1)C1CNCCO1 (stereo not drawn) [Reboxetine, 2-[α(2-ethoxyphenoxy)benzyl]morpholine]",time at which steady-state conditions are approached,[1],approximately 52 hours
same,elimination half-life (t1/2),[2],about 13 hours

# — US6630165B2, “Methods for providing effective reboxetine therapy with once-a-day dosing” (priority 1999, dated 2003)
